Test results reported in patent publication US9657324B1, “Method for treating or preventing mood disorders” (VIRUS IKAGAKU KENKYUSHO INC., priority 2008, dated 2017).

Legend:
CAML = test: Expression of CAML in HHV-6-infected U373 cells in the presence of ganciclovir (indirect fluorescent antibody technique); type: cell-based, human; conditions: U373 cell line infected with HHV-6, ganciclovir added after infection
Method: The human glial cell line (U373) is infected with HHV-6, and then ganciclovir is added. The amount of CAML expressed in the infected cell line in the presence of ganciclovir is measure by the indirect fluorescent antibody technique.

HHV-6 variant B = conditions: "is considered to be", read-out: effective concentration against HHV-6 variant B in terms of IC50; cited from earlier work
[1] = test system: HHV-6 variant B HST strain; test: Expression of SITH-1 in HHV-6-infected U373 cells in the presence of ganciclovir (real-time PCR); type: cell-based, human herpesvirus 6; conditions: U373 glial cell line infected with HHV-6, one day after infection, relative to ganciclovir (-)
Method: The human glial cell line (U373) was infected with HHV-6 in the presence of ganciclovir, and the amount of SITH-1 expressed in the infected cell line was measured by the real-time PCR technique.
The U373 cells were cultured overnight in the presence of ganciclovir at various concentrations (FIG. 14) and infected with an HHV-6 variant B HST strain, and the amount of SITH-1 that was expressed in cells one day after the infection was measured by the real-time PCR technique.
Since the effective concentration of ganciclovir against HHV-6 variant B is considered to be about 10 μM in terms of IC50, three concentrations were obtained by 3-fold dilutions, with 10 μM in the middle.
The vertical axis of the graph in FIG. 14 plots the relative amount of expression of SITH-1 mRNA, with the value for ganciclovir (-) being taken as unity. […] When ganciclovir was used in the amounts of […], 10 μM and 30 μM, the amount of expression of SITH-1 mRNA was suppressed by about 20%, 40% and more than 80%, respectively.

[2] = test system: HHV-6 or Epstein-Barr virus (EBV); conditions: patients with encephalitis/encephalopathy-like and long-standing fatigue symptoms, presumably due to HHV-6 or EBV infection; cited from earlier work

| Compound | amount of CAML expression (CAML) | IC50 (HHV-6 variant B) [µM] | amount of expression of SITH-1 mRNA suppressed ([1]; ganciclovir 3 μM) | amount of expression of SITH-1 mRNA suppressed ([1]; ganciclovir 10 μM) [%] | amount of expression of SITH-1 mRNA suppressed ([1]; ganciclovir 30 μM) | patients who had their symptoms improved [2] [%] |
| --- | --- | --- | --- | --- | --- | --- |
| Nc1nc(O)c2ncn(COC(CO)CO)c2n1 [ganciclovir] | suppressed by ganciclovir in a dose-dependent manner | ~10 | about 20% | ~40 | more than 80% | – |
| CC(C)[C@H](N)C(=O)OCC(CO)OCn1cnc2c(=O)nc(N)[nH]c21 (stereo partly drawn) [valganciclovir] | – | – | – | – | – | 75 |
